Laboratory results from PMC3634028, “Novel α-MSH Peptide Analogues with Broad Spectrum Antimicrobial Activity” (PLoS ONE, 2013).
In brackets after ≈: the same amount, converted by molar mass. Where a SMILES comes first, the peptide text is derived from it.

What was measured:
[1] = tested on: HaCaT keratinocyte cell line; experiment: Cytotoxic activity, MTT colorimetric method; type: cell-based, human; settings: highest peptide concentration used (100 µM), 24 h
Experimental: Effects on viability was tested in the immortalised keratinocyte cell line HaCaT using the [3(4,5-dimethylthiazol-2yl)2,5-diphenyltetrazolium bromide] (MTT) colorimetric method in which the intensity of the dye is proportional to the number of viable cells. MTT is a tetrazolium salt which is reduced to a colored formazan product by mitochondrial reductases present only in metabolically active cells. Cells were cultured in Dulbecco's modified Eagle's medium (DMEM; Sigma) supplemented with 10% heat inactivated fetal bovine serum, glutamine (4 mM) and gentamicin. Afterwards, cells were plated in triplicate wells of a microtiter plate, at 4×10^4 cells/well in DMEM supplemented with 2% serum without antibiotic. After overnight incubation at 37°C in a 5% CO2 atmosphere, the medium was replaced with […] fresh DMEM supplemented with the peptides at different concentrations. The plate was incubated for 24 h at 37°C in a 5% CO2 atmosphere. Then, DMEM was removed and replaced with Hank's medium (136 mM NaCl; 4.2 mM Na2HPO4; 4.4 mM KH2PO4; 5.4 mM KCl; 4.1 mM NaHCO3, pH 7.2, supplemented with 20 mM D-glucose) containing 0.5 mg/ml MTT. After 4 h incubation, the formazan crystals were dissolved by adding 100 µl of acidified isopropanol and absorption of each well was measured using a microplate reader (Infinite M200; Tecan, Salzburg, Austria) at 570 nm. Cell viability was e expressed as percentage of viability in control cells (cells not treated with peptide).
Figure 1 Effects of the synthetic melanocortins on viability of HaCat cells. Cells were plated in wells of a microtiter plate, at 4×10^4 cells/well in DMEM supplemented with 2% serum without antibiotic. After overnight incubation at 37°C in a 5% CO2 atmosphere, the medium was replaced with 100 µl fresh DMEM supplemented with the peptides at different concentrations. […] Cell viability is expressed as percentage of viability in control cells (cells not treated with the peptide).

[2] = tested on: Candida strains (C. albicans, C. glabrata, C. krusei); experiment: Anti-Candida assay, overall result in words; type: cell-based, Candida spp; settings: standard culture conditions, broth culture medium
Experimental: (§1) Two Candida albicans isolates were purchased from the ATCC (No. 24433 and 76615). The other yeast isolates were obtained from the collection of Fondazione Ca' Granda- Ospedale Maggiore Policlinico, Milano. The collection included C. albicans (7 isolates), C. glabrata (3 isolates), and C. krusei (3 isolates). Antifungal susceptibility testing was performed using the broth microdilution method according to the NCCLS M27-A guidelines (National Committee for Clinical Laboratory Standards. 1997, Reference method for broth dilution antifungal susceptibility testing of yeasts and approved standard NCCLS document M27-A. National Committee for Clinical Laboratory Standards, Wayne, Pa.). […] After 48 h of incubation, the plates were inspected for purity. A colony was taken from the agar plate and transferred into 5 mL Sabouraud-dextrose broth and incubated for 48 h at 35°C. Cells were centrifuged at 1,000× g for 10 min and the pellet was washed twice with distilled water. Cells were counted and suspended in RPMI 1640 medium buffered to pH 7.0 with 0.165 mol l^−1 morpholinepropanesulphonic acid (MOPS) buffer (Sigma) to obtain the two times test inoculum (1×10^3 to 5×10^3 CFU/mL). […] The MIC90, i.e. the minimum inhibitory concentrations endpoint were determined as 90% reduction in turbidity measured using a spectrophotometer (Titertek multiscan at 690 nm wave length).

[3] = tested on: C. albicans; type: cell-based, Candida albicans; settings: 48 h
Experimental: as §1

[4] = tested on: Pseudomonas aeruginosa ATCC 27853; type: cell-based; settings: ATCC 27853, 18 h
Experimental: (§2) The strains used for the antimicrobial assays were the Gram-negative bacteria Acinetobacter baumani ATCC 19606, Escherichia coli D21, Pseudomonas aeruginosa ATCC 27853, and Pseudomonas syringae pv tabaci 1918NCPPB and the Gram-positive bacteria Bacillus megaterium Bm11, Staphylococcus aureus ATCC 25923, and Staphylococcus epidermidis ATCC 12228. Susceptibility testing was performed by adapting the microbroth dilution method outlined by the Clinical and Laboratory Standards Institute, using sterile 96-well plates (Falcon NJ, USA). The bacterial growth was aseptically measured by absorbance at 590 nm with a spectrophotometer (UV-1700 Pharma Spec Shimadzu, Tokyo, Japan). Afterwards, aliquots (50 µl) of bacteria in mid-log phase at a concentration of 2×10^6 colony-forming units (CFU)/mL in culture medium (Mueller-Hinton, MH) were added to 50 µl of MH broth containing the peptide in serial 2-fold dilutions ranging from 1.56 to 100 µM. Inhibition of microbial growth was determined by measuring the absorbance at 590 nm, after an incubation of 18 h at 37°C with a microplate reader (Infinite M200; Tecan, Salzburg, Austria).

[5] = tested on: Pseudomonas syringae pv tabaci 1918NCPPB; type: cell-based; settings: 18 h
Experimental: as §2

[6] = tested on: Staphylococcus aureus ATCC 25923; type: cell-based; settings: ATCC 25923, 18 h
Experimental: as §2

[7] = tested on: Escherichia coli D21; type: cell-based; settings: D21, 18 h
Experimental: as §2

[8] = tested on: Acinetobacter baumani ATCC 19606; type: cell-based; settings: ATCC 19606, 18 h
Experimental: as §2

[9] = tested on: Bacillus megaterium Bm11; type: cell-based; settings: Bacillus Bm11, 18 h
Experimental: as §2

[10] = tested on: Staphylococcus epidermidis ATCC 12228; type: cell-based; settings: ATCC 12228, 18 h
Experimental: as §2

[11] = tested on: C. krusei; type: cell-based, Candida krusei; settings: 48 h
Experimental: as §1

[12] = tested on: Candida; design: method as in PMID 15743181; settings: cited from earlier work
[13] = tested on: C. glabrata; type: cell-based, Candida glabrata; settings: 48 h
Experimental: as §1

## CC(C)[C@H](NC(=O)[C@H](Cc1ccccc1)NC(=O)[C@H](CCCCN)NC(=O)CNC(=O)[C@H](Cc1c[nH]c2ccccc12)NC(=O)[C@H](CCCNC(=N)N)NC(=O)[C@@H](Cc1ccc2ccccc2c1)NC(=O)[C@@H](N)Cc1c[nH]cn1)C(N)=O [DNal, H-His-D(2′)Nal-Arg-Trp-Gly-Lys-Phe-Val-NH2, reference compound] (HELM PEPTIDE1{H.[O=C([C@@H](Cc1ccc2ccccc2c1)N[*:1])[*:2]].R.W.G.K.F.V.[am]}$$$$V2.0)
[1]
  cell death / killing of human keratinocytes: 50–100%
[2]
  antimicrobial / anti-Candida activity (in words): did not have substantial antimicrobial activity
[3]
  MIC 90: >100 µM
[4]
  MIC 100: 100 µM (≈ 113 µg/mL)
[5]
  MIC 100: >100 µM
[6]
  MIC 100: >100 µM
[7]
  MIC 100: >100 µM
[8]
  MIC 100: >100 µM
[9]
  MIC 100: 6 µM (≈ 6.75 µg/mL)
[10]
  MIC 100: 50 µM (≈ 56.3 µg/mL)
[11]
  MIC 90: >100 µM
[12]; in growth medium ref 7
  killing of Candida (in words): did not kill
[12]; organisms incubated in distilled water ref 7
  Candida organisms killed: 100%
[13]
  MIC 90: >100 µM

## CC(C)[C@H](NC(=O)[C@H](Cc1ccccc1)NC(=O)[C@H](CCCCN)NC(=O)C1(NC(=O)[C@H](Cc2c[nH]c3ccccc23)NC(=O)[C@H](CCCNC(=N)N)NC(=O)[C@@H](Cc2ccc3ccccc3c2)NC(=O)[C@@H](N)Cc2c[nH]cn2)CC1)C(N)=O [Peptide 4, H-His-D(2′)Nal-Arg-Trp-Ac3c-Lys-Phe-Val-NH2] (HELM PEPTIDE1{H.[O=C([C@@H](Cc1ccc2ccccc2c1)N[*:1])[*:2]].R.W.[O=C(C1(N[*:1])CC1)[*:2]].K.F.V.[am]}$$$$V2.0)
[1]
  cell death / killing of human keratinocytes: less than 30%
[2]
  antimicrobial / anti-Candida activity (in words): inactive
[3]
  MIC 90: >100 µM
[4]
  MIC 100: 50 µM (≈ 57.6 µg/mL)
[5]
  MIC 100: >100 µM
[6]
  MIC 100: 100 µM (≈ 115 µg/mL)
[7]
  MIC 100: 100 µM (≈ 115 µg/mL)
[8]
  MIC 100: 50 µM (≈ 57.6 µg/mL)
[9]
  MIC 100: 6.25 µM (≈ 7.2 µg/mL)
[10]
  MIC 100: 25 µM (≈ 28.8 µg/mL)
[11]
  MIC 90: >100 µM
[13]
  MIC 90: >100 µM
